The text below walks through data of patent publication US8642553B2, “Acacia macrostachya seed extract and compositions containing same” (Laboratoires Expanscience, priority 2009, dated 2014).

The test system of experiment [1] is Normal human keratinocytes. Put plainly: Screening of expression of junction protein messengers in keratinocytes (PCR array). The format is cell-based. The conditions noted are these: 1.5 mM, 24 hours, Control: 100%. As to the method:
The activity of Acacia hydrolysate was studied by quantitative RT-PCR on the level of expression of 16 genes mainly coding for tight junction proteins as well as for the major proteins of the communicating junctions of the epidermis. […] The expression of the markers was evaluated by quantitative RT-PCR (PCR array). The variation in the expression of the markers studied compared to the control was expressed in percentage (Control: 100%). The levels of expression are classified in the following manner: […]

Experiment [2] has as its system Normal human fibroblasts. Description: Gene expression of markers of the dermal matrix and antioxidant defences by fibroblasts (quantitative RT-PCR in real time). The settings on record: 5 ng/ml, 24h. The format is cell-based. Here is the method: The effect of Acacia hydrolysate on the modulation of the extra-cellular matrix of the dermis and on the stimulation of the anti-oxidant defences was evaluated on a dermal fibroblasts model in which the gene expression of elastin, MMP1 and heme oxygenase 1 was studied by quantitative RT-PCR in real time.
Normal human fibroblasts were treated for 24h with 0.01% and 0.05% Acacia hydrolysate (w/v) or with the reference TGFβ1 at 5 ng/ml. The gene expression of the selected markers was analysed by quantitative RT-PCR in real time.
The results were analysed statistically by a one-way variance analysis (ANOVA) followed by a Dunnett test: • ns p>0.05: not significant • *0.01<p<0.05: significant • **0.001<p<0.01: very significant • ***p<0.001: highly significant
The level of gene expression was expressed in relative quantity (RQ) and the effect of the treatment in relation to the control cells in percentage increase or inhibition.

Regarding `[Ca+2].[Cl-].[Cl-]` [CaCl2, calcium chloride], in experiment [1], the Cingulin messenger expression was determined as 337 % Control, the “Claudin 1 messenger expression” value was 216 % Control, the “Gap junction protein (β2 messenger expression)” value turned out to be 43 % Control and the Occludin messenger expression came to 445 % Control.

As to TGFβ1: reference TGFβ1 at 5 ng/ml, in experiment [2], the “ELASTIN gene expression, percentage increase or inhibition vs control cells” value was “+559%” and the “MMP1 gene expression, percentage increase or inhibition vs control cells” value is recorded as −88%. In experiment [2] (control cells 1.00), the “ELASTIN gene expression, relative quantity (RQ)” value was determined as 6.59 and the “MMP1 gene expression, relative quantity (RQ)” value came to 0.12.
